The values that follow are results of earlier work, collected in patent US9579288B2, “Tesofensine and beta blocker combination formulations” (Saniona A/S, priority 2015, dated 2017).

The conditions of data set [1]: obese patients, long-term treatment, corrected for placebo and diet effects.
Data set [2] has as its system DIO rats. The conditions noted are these: rat model of diet-induced obesity (DIO).

Structures are written as SMILES.

`CCOC[C@@H]1[C@@H](c2ccc(Cl)c(Cl)c2)C[C@@H]2CC[C@H]1N2C` [Tesofensine, (1R,2R,3S,5S)-3-(3,4-dichlorophenyl)-2-(ethoxymethyl)-8-methyl-8-azabicyclo[3.2.1]octane]: in data set [1], the weight loss entry is on record as “about 10%”. Besides, in data set [2], the body weight result is “robust and sustained weight loss”.
